Data published in patent US20230295152A1 (SENDA BIOSCIENCES, INC., priority 2019, published 2023).
Values after ≈ are worked out from the molar mass of the structure shown. Where two headings read alike, the source gives them in different places.

Experiments:
[1] = Liver Microsome Stability Assay, human; type: in vitro ADME; details: human liver microsomes
Method: Two separate experiments were performed as follows.
With Cofactors (NADPH): 25 μL of 10 mM NADPH was added to the incubations. The final concentrations of microsomes and NADPH were 0.5 mg/mL and 1 mM, respectively. The final concentration of microsomes was 0.5 mg/mL. The mixture was pre-warmed at 37° C. for 10 minutes. The reaction was started with the addition of 2.5 μL of 100 μM control compound or test compound solutions. Verapamil was used as positive control in this study. The final concentration of test compound or control compound was 1 μM. The incubation solution was incubated in water batch at 37° C. Aliquots of 25 μL were taken from the reaction solution at 0.5, 5, 15, 30 and 60 minutes. The reaction was stopped by the addition of 5 volumes of cold acetonitrile with IS (200 nM caffeine and 100 nM tolbutamide). Samples were centrifuged at 3, 220 g for 40 minutes. Aliquot of 100 μL of the supernatant was mixed with 100 μL of ultra-pure H2O and then used for LC-MS/MS analysis.
Data Analysis: All calculations were carried out using Microsoft Excel. Peak areas were determined from extracted ion chromatograms. The slope value, k, was determined by linear regression of the natural logarithm of the remaining percentage of the parent drug vs. incubation time curve.
The in vitro half-life (in vitro t1/2) was determined from the slope value:
Conversion of the in vitro t1/2 (min) into the in vitro intrinsic clearance (in vitro CLint, in μL/min/mg protein) was done using the following equation (mean of duplicate determinations): […]
The calculations of Scaled-up CLint(mL/min/kg), Predicted CLH (mL/min/kg) and EH were done using the following equation:
Scaled-up CLint=(0.693/t1/2)×(1/(microsomal protein concentration(0.5 mg/mL)))×Scaling Factors;Predicted CLH=(QH×Scaled-up CLint×fub)/(QH+Scaled-up CLint×fub);EH=Predicted CLH/QH
where QH is the hepatic blood flow (mL/min/kg) (Table 32), • fub is the fraction of unbound drug in plasma which is assumed to be 1.
“+++” indicates a Clint value less than 10 mL/min/Kg, […] indicates a Clint between 10 and 20 mL/min/Kg, and “+” indicates a Clint above 20 mL/min/Kg.

[2] = target: T1, AHR (Homo sapiens, UniProt P35869); assay: DRE-Luciferase Reporter Assay, HepG2 AhR-Lucia reporter cells; type: cell-based; details: with AHR activating ligand at EC50, read-out: HepG2-Luc IC50
T1 construct: other cell line with a DRE-luciferase reporter stably transfected; endogenous in cells; host or cells: HepG2 AhR-Lucia reporter cells
T1 sequence (P35869 11-848): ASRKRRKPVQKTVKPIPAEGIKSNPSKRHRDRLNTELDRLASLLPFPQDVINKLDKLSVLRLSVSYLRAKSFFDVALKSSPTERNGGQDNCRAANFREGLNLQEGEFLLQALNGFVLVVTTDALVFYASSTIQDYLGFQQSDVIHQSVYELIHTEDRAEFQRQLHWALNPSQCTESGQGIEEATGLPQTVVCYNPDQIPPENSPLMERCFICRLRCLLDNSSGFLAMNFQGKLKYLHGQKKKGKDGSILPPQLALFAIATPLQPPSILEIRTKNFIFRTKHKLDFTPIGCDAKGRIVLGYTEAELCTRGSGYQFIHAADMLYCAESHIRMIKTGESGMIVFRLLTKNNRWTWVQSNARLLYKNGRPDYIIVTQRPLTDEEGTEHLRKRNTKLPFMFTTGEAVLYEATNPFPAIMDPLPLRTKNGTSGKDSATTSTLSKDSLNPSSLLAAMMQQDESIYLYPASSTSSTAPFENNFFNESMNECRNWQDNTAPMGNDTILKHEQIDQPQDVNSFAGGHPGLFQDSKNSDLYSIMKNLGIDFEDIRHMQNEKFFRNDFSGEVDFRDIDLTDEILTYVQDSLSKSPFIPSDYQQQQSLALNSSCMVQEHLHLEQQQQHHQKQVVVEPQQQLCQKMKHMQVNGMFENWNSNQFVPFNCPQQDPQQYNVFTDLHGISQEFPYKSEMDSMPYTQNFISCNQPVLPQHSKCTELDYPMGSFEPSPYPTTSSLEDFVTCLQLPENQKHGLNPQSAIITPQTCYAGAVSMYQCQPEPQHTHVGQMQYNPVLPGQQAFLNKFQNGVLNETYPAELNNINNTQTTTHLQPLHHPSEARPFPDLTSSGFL
In short: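 DRE-luciferase reporter cells (e.g. HepG2 AhR-Lucia, 20000 cells) treated with antagonist log dilutions from 100 uM, then an AHR agonist (e.g. TCDD, kynurenine, ITE, FICZ) at its EC50 added after 1 hr. Secreted luciferase measured after 24 or 48 h (QUANTI-Luc); IC50 = concentration halving luciferase activity.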

[3] = Solubility Determination Assay in PBS pH 1.6 and pH 7.4; type: physicochemical; details: PBS buffer, aqueous buffer, kinetic from dmso stock
Method: The stock solutions of test compounds and control compound progesterone were prepared in DMSO at the concentrations of 10 mM. 15 μL of stock solution (10 mM) of each sample was placed in order into their proper 96-well rack. 485 μL of PBS pH 1.6 and pH 7.4 were added into each vial of the cap-less Solubility Sample plate. The assay was performed in singlet. One stir stick was added to each vial and then the vial was sealed using a molded PTFE/Silicone plug. […] After completion of the 2 hours, plugs were removed and the stir sticks were removed using a big magnet. The samples from the Solubility Sample plate were transferred into the filter plate. Using the Vacuum Manifold, all the samples were filtered. An aliquot of 5 μL was taken from the filtrate followed by addition of 495 μL of a mixture of H2O and acetonitrile containing internal standard (1:1). A certain proportion of ultrapure water was used to dilute the diluent according to the peak shape. The dilution factor was changed according to the solubility values and the LC-MS signal response.
From the 10 mM DMSO STD plate, 6 μL was transferred into the remaining empty plate, and then 194 μL of DMSO were added to that plate to have a STD concentration of 300 μM. From the 300 μM DMSO STD plate, 5 μL were transferred into the remaining empty plate, and then 495 μL of a mixture of H2O and acetonitrile containing internal standard (1:1) were added to that plate to have a final STD concentration of 3 μM. A certain proportion of ultrapure water was used to dilute the diluent according to the peak shape. The concentrations of the standard samples were changed according to the LC-MS signal response.
The plate was placed into the well plate autosampler. The samples were evaluated by LC-MS/MS analysis.
All calculations were carried out using Microsoft Excel.
The filtrate was analyzed and quantified against a standard of known concentration using LC coupled with mass spectral peak identification and quantitation. Solubility values of the test compound and control compound were calculated as follows: […]
Any value of the compounds that was not within the specified limits was rejected and the experiment was repeated.
“+++” indicates a solubility value equal to or greater than 1 μM, “++” indicates a solubility value between 0.1 and 1 μM, and “+” indicates a solubility value less than 0.1 μM.

[4] = PBS pH 1.6, 25° C., read-out: Aq. Solubility at pH = 1.6
[5] = PBS pH 7.4, 25° C., read-out: Aq. Solubility at pH = 7.4

Row | Structure (SMILES) | Human liver microsome clearance [1] | IC50 [2] [nM] | solubility at 2 h [3, 4] [µM] | solubility at 2 h [3, 5] [µM]
1 | Cc1ccc(-c2cc3c(=O)n([C@@H](C)CO)cnc3c(-c3cccc(F)c3)n2)cc1 [Compound 48, 8-(3-fluorophenyl)-3-[(1S)-2-hydroxy-1-methyl-ethyl]-6-(p-tolyl)pyrido[3,4-d]pyrimidin-4-one] | +++ (“+++” indicates a Clint value less than 10 mL/min/Kg) | < 100 | ≥ 1 | 0.1 to 1 (≈ 0.0389 to 0.389 µg/mL)
2 | C[C@@H](CO)n1cnc2c(-c3cccc(F)c3)nc(-c3ccc(OC(F)(F)F)cc3)cc2c1=O [Compound 49, 8-(3-fluorophenyl)-3-[(1S)-2-hydroxy-1-methyl-ethyl]-6-[4-(trifluoromethoxy)phenyl]pyrido[3,4-d]pyrimidin-4-one] | +++ (“+++” indicates a Clint value less than 10 mL/min/Kg) | < 100 | < 0.1 | < 0.1
